Experimental data as given in publication PMC7592376, “Design and synthesis of multi-target directed 1,2,3-triazole-dimethylaminoacryloyl-chromenone derivatives with potential use in Alzheimer's disease” (BMC Chemistry, 2020).
“And” between values parts separate entries of the source, which are not always exact repeats. Identical values can stand only once.

Assays:
BuChE [1] = target: T1, BuChE (Homo sapiens, UniProt P06276); test: biochemical; conditions: mean ± SD, three independent experiments; read-out: BuChEI IC50
T1 construct: purchased Aldrich
T1 sequence (P06276 29-602): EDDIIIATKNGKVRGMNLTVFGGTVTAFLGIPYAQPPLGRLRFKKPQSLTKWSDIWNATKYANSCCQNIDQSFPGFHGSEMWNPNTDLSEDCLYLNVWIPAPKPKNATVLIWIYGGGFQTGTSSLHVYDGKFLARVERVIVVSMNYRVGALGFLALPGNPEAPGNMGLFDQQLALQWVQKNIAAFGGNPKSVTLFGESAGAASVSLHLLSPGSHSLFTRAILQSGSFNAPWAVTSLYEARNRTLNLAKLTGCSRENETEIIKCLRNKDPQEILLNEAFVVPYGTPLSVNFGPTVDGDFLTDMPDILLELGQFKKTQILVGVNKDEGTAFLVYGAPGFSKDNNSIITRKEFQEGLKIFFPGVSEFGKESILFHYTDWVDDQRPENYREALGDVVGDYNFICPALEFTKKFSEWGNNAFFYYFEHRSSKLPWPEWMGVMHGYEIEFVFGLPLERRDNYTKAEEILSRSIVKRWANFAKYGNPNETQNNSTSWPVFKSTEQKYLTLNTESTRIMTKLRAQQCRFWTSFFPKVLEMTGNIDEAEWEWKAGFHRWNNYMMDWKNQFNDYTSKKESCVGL
Method: (§1) All enzymes and reagents required for the assay were obtained from Aldrich. […] Each well contained 50 µL potassium phosphate buffer (KH2PO4/ K2HPO4, 0.1 M, pH 8), 25 µL sample solution, and 25 µL enzyme (final concentration 0.22 U/mL in buffer). Control experiments were also performed under the same conditions without enzyme. After incubation at room temperature for 15 min, 125 µL DTNB (3 mM in buffer) was added and the characterization of enzymatic reaction was spectrometrically performed at 405 nm followed by the addition of substrate (ATCI 3 mM in water) after 5–10 min. The IC50 values were determined graphically from inhibition curves (log inhibitor concentration vs. percent of inhibition). Also, the same method was used for the BuChE inhibition assay.

AChE = target: T2, AChE (Electrophorus electricus, UniProt O42275); test: biochemical; conditions: mean ± SD, three independent experiments; read-out: AChEI IC50
T2 construct: purchased Aldrich
T2 sequence (O42275 24-633): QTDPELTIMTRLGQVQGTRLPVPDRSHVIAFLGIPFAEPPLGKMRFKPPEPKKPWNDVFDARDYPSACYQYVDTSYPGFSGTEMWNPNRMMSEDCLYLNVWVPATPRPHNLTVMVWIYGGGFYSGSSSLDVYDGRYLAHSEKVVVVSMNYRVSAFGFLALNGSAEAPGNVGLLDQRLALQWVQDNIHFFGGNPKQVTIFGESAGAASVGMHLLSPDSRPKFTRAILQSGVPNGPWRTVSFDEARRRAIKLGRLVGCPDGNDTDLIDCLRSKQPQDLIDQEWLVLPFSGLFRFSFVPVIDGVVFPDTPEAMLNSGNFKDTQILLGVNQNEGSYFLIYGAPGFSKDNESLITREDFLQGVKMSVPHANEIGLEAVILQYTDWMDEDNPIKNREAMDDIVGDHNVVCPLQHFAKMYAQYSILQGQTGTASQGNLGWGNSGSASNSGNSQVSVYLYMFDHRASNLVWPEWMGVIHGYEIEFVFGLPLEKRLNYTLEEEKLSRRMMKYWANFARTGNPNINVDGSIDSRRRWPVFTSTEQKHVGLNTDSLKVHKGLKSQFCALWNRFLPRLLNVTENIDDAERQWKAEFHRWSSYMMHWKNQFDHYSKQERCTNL
Method: as §1

[2] = Metal chelation studies by UV spectra and molar ratio method; assay type: physicochemical
Method: The stoichiometry of complex 10h-Cu^2+ was also studied (Fig. 4) due to important role of copper ions in AD [38]. The concentration of the test compound 10h was 20 μM and the final concentration of Cu^2+ ranged from 0–44 μM with 4 μM intervals at 303.5 nm.
The plot was obtained by the corresponding absorption against the mole fraction of Cu^2+ to ligand 10h. According to the plot, the ratio 1:1 complexation ration of 10h-Cu^2+ can be seen at the fracture point of the plot with the mole fraction of […].
To study the metal chelating ability, the solutions of compound 10h and Fe^2+, Cu^2+, and Zn^2+ ions (from FeSO4, CuCl2.2H2O, and ZnCl2) were prepared in methanol. The mixture of compound 10h (1 mL) and the test ion solutions (1 mL) with the same final concentration of 20 µM in a 1 cm quartz cuvette was incubated at room temperature for 30 min. Then, the absorption spectra were recorded in the range of 200–600 nm.
The stoichiometry of complex 10h-Cu^2+ was also studied using the molar ratio method. The concentration of compound 10h was 20 μM and the final concentration of Cu^2+ ranged from 0–44 μM with 4 μM intervals at 303.5 nm. The plot was obtained by the corresponding absorption versus mole fraction of Cu^2+ to ligand 10h. All experiments were performed in triplicate.

BuChE [3] = target: T1, BuChE; test: Kinetic study of BuChE inhibition (Lineweaver-Burk and secondary plot); assay type: biochemical
Method: The kinetic study was performed to investigate the mechanism of inhibition by compound 10h against BuChE.
The Lineweaver–Burk reciprocal plot was provided by plotting 1/V against 1/[S] at variable concentrations of butyrylthiocholine as the substrate (187.5, 750, 1500, 3000 µM).

[4] = target: AChE-induced Aβ1-40 peptide aggregation (Homo sapiens, UniProt P05067); test: biochemical; conditions: read-out: % Inhibition AChE-induced Aβ aggregation
Sequence of AChE-induced Aβ1-40 peptide aggregation (P05067 672-711): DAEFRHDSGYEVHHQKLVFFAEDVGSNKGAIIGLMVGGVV
Method: (§2) Inhibition of Aβ1-42 self-aggregation was measured by ThT fluorescence assay. The details of the method were reported in our previous study. To study Aβ42 aggregation inhibition, a reported method, based on the fluorescence emission of ThT was followed. Briefly, the mixtures of Aβ1-40 peptide (Bachem company, Switzerland) and AChE (Sigma, Electrophorus electricus), in the presence or absence of the test inhibitor were incubated for 24 h at room temperature.

Aβ1-42 = Aβ1-42 (Homo sapiens, UniProt P05067); test: biochemical; conditions: read-out: % Inhibition self-induced Aβ1–42 aggregation
Sequence of Aβ1-42 (P05067 672-713 limits assumed): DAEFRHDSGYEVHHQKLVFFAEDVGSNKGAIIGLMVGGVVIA
Method: as §2

PC12 cells = test: Neuroprotection against Aβ25-35-induced damage, MTT assay; assay type: cell-based; conditions: up to 50 μM, Aβ25-35 5 μM
Method: Compound 10h was selected to study the neuroprotective ability using PC12 cell injury induced by Aβ25–35 by MTT assay.
MTT reduction assay was used to evaluate the neuroprotective effect of compound 10h on neuronal PC12 cell damage induced by Aβ25-35. The cells were grown in monolayer culture on collagen-coated plates at 37 °C in a humidified atmosphere of 5% CO2. Neuronal PC12 cells were plated at a density of 5 × 10^5 cells/well on 96-well plates. The cells were pre-incubated with compound 10h for 3 h before human Aβ 25–35 (final concentration of 5 μM) was added. After 24 h, 90 μL the medium was taken out and 20 μL of MTT (0.5 mg/ml dissolved in RPMI containing phenol red) was added and incubated for an additional 2 h at 37 °C. The absorbance (A570 nm) was measured using a Bio-Rad microplate reader (Model 680, Bio-Rad). The details were reported in our previous work.

CN(C)/C=C/C(=O)c1cc2ccc(OCc3cn(Cc4ccc(F)c(F)c4)nn3)cc2oc1=O [Compound 10h, (E)-7-((1-(3,4-Difluorobenzyl)-1H-1,2,3-triazol-4-yl)methoxy)-3-(3-(dimethylamino)acryloyl)-2H-chromen-2-one]
IC50 (BuChE [1]): 21.7 ± 0.57 µM | IC50 (AChE): > 100 µM | metal chelating ability (in words) ([2]; Fe2+, Cu2+, Zn2+): able to chelate biometals | UV absorption peaks after interaction with Cu2+ ([2]; methanol, 20 µM each, 30 min): 303.5 nm and 382.4 nm | UV absorption peaks after interaction with Fe2+ ([2]; methanol, 20 µM each, 30 min): 303.5 nm and 390.9 nm | UV absorption peaks after interaction with Zn2+ ([2]; methanol, 20 µM each, 30 min): 299.2 nm and 388.7 nm | UV absorption peaks of compound alone ([2]; methanolic solution 20 µM): 309.9 nm and 386.7 nm | inhibition pattern (Lineweaver-Burk plot) (BuChE [3]; BuChE, inhibitor 0, 10.7, 42.9, 85.8 µM): mixed-type inhibition | Ki (BuChE [3]; from secondary plot of slopes vs inhibitor concentration, substrate butyrylthiocholine): 38.3 µM | inhibition at 100 µM [4]: 29.4 ± 1.5% | inhibition at 10 µM (Aβ1-42): 32.6 ± 2% | neuroprotective effect on Aβ-induced PC12 cell injury (PC12 cells): no neuroprotective effect
